Assay results reported in patent US20260242759A1, “GQ/11 Protein Peptidomimetics” (Vrije Universiteit Brussel, priority 2022, published 2026).
Positions of bridges follow the written chain, without caps; N, C: chain ends. Non-standard residues stand in square brackets, D forms with d. Residues, ends and D or L forms follow the SMILES beside them. Triazole bridges read from a SMILES are 1,4-linked. Lys(N3) = [N-]=[N+]=NCCCC[C@H](N)C(=O)O; Cha = N[C@@H](CC1CCCCC1)C(=O)O; Pra = C#CC[C@H](N)C(=O)O

Columns and labels:
[1] = target: T1, human ghrelin receptor (GHSR) (Homo sapiens, UniProt Q92847, C146S/C304S); assay: Bimane fluorescence assay on purified ghrelin receptor in nanodiscs; assay type: biochemical; conditions: bimane labeled GHSR; for conformational change in the receptor: in presence of JMV1843; for maximum emission wavelength of bimane: in presence of full agonist JMV1843 (20 μM)
T1 construct: integrin α5 fragment (N); polyhistidine tag (C); made in house; host or cells: E. coli BL21(DE3)
Text: Another assay that can be used to analyse conformational changes associated with GPCR activation and/or to identify G protein peptidomimetics that are capable of stabilizing a GPCR in an active conformational state is the bimane fluorescence assay or bimane assay. This assay works through labelling of a cysteine residue in the lower part of the TM6 of a GPCR with a bimane-fluorophore (monobromobimane (MB)). Binding of an agonist to the GPCR causes a conformational change and outward movement of TM6 that places bimane in a more solved-exposed position, which will alter its maximum emission wavelength. In particular, increasing concentrations of agonist result in a concentration-dependent red-shift of the maximum emission wavelength (λmax) of the bimane-fluorophore probe. In the presence of a G protein or an active state stabilizing G protein peptidomimetic λmax may increase further. For example, a bimane labelled ghrelin receptor (such as a cysmin mutant (i.e. mutant with minimal cysteines) of human ghrelin receptor (also referred to herein as growth hormone secretagogue receptor (GHSR) (e.g. the mutant as described in Damian et al. (2021) wherein monobromobimane (MB) fluorescent probe is attached to Cys^255) and ghrelin receptor agonist JMV1843 may be used.
The bimane fluorescence assays on the ghrelin receptor were performed as described in Damian et al. (2021. Nat. Commun. 12:1-15). Briefly, E. coli bacteria (BL21(DE3)) were transformed with a vector encoding the human ghrelin receptor with an integrin α5 fragment at the N-terminus and a polyhistidine tag at the C-terminus. The receptors were then purified and reconstituted into lipidated nanodiscs. The monobromobimane labeling was performed by incubating the receptors, with a unique reactive cysteine at position 255, during 16 h in the dark at 4° C. and in the presence of 0.1 mM tris(2-carboxyethyl)phosphine (TCEO). The reaction was terminated with 5 mM L-cysteine and unreacted monobromobimane was removed using a Zeba™ Spin desalting column.
For the fluorescence assay, the labeled receptor was incubated during 2 h at 20° C. (0.2 μM final concentration), in the absence or presence of the full agonist JMV1843 (20 μM) and in the absence or presence of either the peptidomimetics at varying molar ratios or the purified Gαqβ1γ2 heterotrimer, at a 1:5 receptor-to-G protein molar ratio. Afterwards, the fluorescence experiments were performed on a Horiba Fluoromax-4 TCSP spectrofluorimeter. For each scan, the excitation wavelength (λexc) was set at 380 nm and emission was collected between 440 nm and 520 nm.
The bimane assay is used on GPCRs to detect conformational changes associated with receptor activation. This assay functions through the labelling of a cysteine, which is one of the least frequently occurring amino acids in proteins. Additionally, the majority of the extracellular cysteines form disulfide bonds, which, together with the transmembrane cysteines, are inert to thiol-reactive reagents. Additionally, some of the intracellular cysteines in the C-terminal tail may carry post-translational modifications which reduces the number of reactive cysteines in the receptor (Tian et al. 2017. Chem. Rev. 117:186-245). For GHSR, the remaining reactive cysteine residues C146 (ICL2) and C304 (extracellular end of TM7) were replaced by serines (cysmin mutant, i.e. mutant with minimal cysteines), to allow the monobromobimane (MB) fluorescent probe to be specifically attached to Cys255 in the lower part of TM6 (FIG. 5a) (Damian et al. 2021). In this assay, bimane is chosen because of its small size and sensitivity to the polarity of its environment (Yao et al. 2006. Nat Chem. Biol. 2:417-422). Binding of a ligand to the receptor, causes a conformational change and outward movement of TM6 that places bimane in a more solvent-exposed position, which alters its maximum emission wavelength. […]

[2] = target: T2, human muscarinic 1 receptor (M1R) (Homo sapiens, UniProt P11229); assay: Radioligand binding assay (RLA) on M1R membrane extracts; conditions: for Shift: IC50 of agonist without mimetic divided by IC50 with mimetic, averaged value; for increase of agonist affinity / stabilization of the receptor: acetylcholine chloride, mimetic at 100 μM
T2 construct: The M1R constructs used in this assay consisted of the full-length human muscarinic 1 receptor; FLAG (N); expressed in transfected cells; membrane extracts
T2 sequence (P11229 1-460): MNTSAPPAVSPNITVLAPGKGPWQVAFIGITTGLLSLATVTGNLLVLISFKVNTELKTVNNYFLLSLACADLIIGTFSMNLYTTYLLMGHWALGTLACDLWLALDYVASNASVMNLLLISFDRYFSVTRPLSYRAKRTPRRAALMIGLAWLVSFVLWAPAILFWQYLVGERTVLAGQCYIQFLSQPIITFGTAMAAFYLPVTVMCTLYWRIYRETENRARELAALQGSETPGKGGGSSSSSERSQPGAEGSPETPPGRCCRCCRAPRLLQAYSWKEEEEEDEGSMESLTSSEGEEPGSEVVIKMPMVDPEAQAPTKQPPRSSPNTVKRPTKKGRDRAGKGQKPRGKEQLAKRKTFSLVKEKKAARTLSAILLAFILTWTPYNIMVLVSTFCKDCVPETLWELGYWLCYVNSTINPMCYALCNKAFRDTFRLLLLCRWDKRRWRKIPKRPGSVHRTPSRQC
Text: A radioligand displacement assay can quantify the pharmacological stabilization of the GPCR in the active conformation by comparing the affinities of an agonist for the basal versus the active GPCR conformer. In particular, stabilization of a GPCR in an active conformational state or specific binding to a GPCR in an active conformational state by a G protein peptidomimetic or a Gq/11 protein peptidomimetic as disclosed herein can be determined based on the shift in IC50 value of a ligand, in particular an agonist more particularly an orthosteric agonist, which binds to the GPCR when tested in the presence and the absence of the G protein peptidomimetic or the Gq/11 protein peptidomimetic. During the assay, the binding affinity of an orthosteric agonist for the receptor in presence and absence of the (allosteric) peptidomimetic is determined. Therefore, the GPCR, e.g. embedded in membrane extracts, is incubated with a radioligand and different concentrations of the agonist. By increasing the agonist concentration, radioligand will be displaced by the agonist. A leftward shift of the curve in the presence of the peptidomimetic is indicative of a peptidomimetic capable of stabilizing a GPCR in an active conformational state. A “shift” in IC50 value or IC50 shift is defined herein as the IC50 ratio of a ligand, in particular an agonist, more particularly an orthosteric agonist, which binds to the GPCR in the absence of a G protein peptidomimetic or a Gq/11 protein peptidomimetic relative to the presence of the G protein peptidomimetic or the Gq/11 protein peptidomimetic, or the IC50 value of a ligand, in particular an agonist, for binding to the GPCR in the absence of a G protein peptidomimetic or a Gq/11 protein peptidomimetic divided by the IC50 value of the ligand in the presence of the G protein peptidomimetic or the Gq/11 protein peptidomimetic in the same preparation, wherein said IC50 values are determined in a radioligand binding assay or radioligand displacement assay (RLA) as known to the skilled person. For example, a human muscarinic acetylcholine 1 receptor (M1R) radioligand binding assay using ^3H—N-methyl scopolamine (^3H-NMS) as the radioligand and increasing concentrations of acetylcholine chloride (agonist) as cold competitor may be used.
The membrane extracts were prepared from cells that overexpressed muscarinic acetylcholine 1 receptor (M1R), by resuspending the cell pellet in a buffer (1 ml buffer/2×1E7 cells) containing 20 mM Hepes (pH 7.4), 100 mM NaCl, Leupeptin and phenylmethylsulfonyl fluoride (PMSF). Afterwards the cells were vortexed and homogenized in ice using a small volume ULTRA-TURRAX® (6×10 sec). The cells were then centrifuged for 15 min at 16000 rcf, in a pre-cooled centrifuge (4° C.) and resuspended in the previous buffer containing 10% sucrose. Finally, the membranes were again homogenized in ice with the small volume ULTRA-TURRAX® (3×10 sec). The protein concentration in the membrane extracts was determined using a Pierce™ bicinchoninic acidv (BCA) Protein Assay Kit and the protein concentration was extrapolated from the Bovine Serum Albumine standard curve.
The M1R constructs used in this assay consisted of the full-length human muscarinic 1 receptor with a FLAG tag at the N-terminus. A buffer containing 20 mM Hepes pH 7.4, 100 mM NaCl, and 0.1% BSA was used for the ligands, membrane extracts and peptides (+1% dimethylsulfoxide (DMSO)). The competition assay was performed with [3H]—N-methyl scopolamine ([3H]-NMS) as radiolabeled antagonist, at a final concentration of 0.6 nM. A ten-fold dilution series of the agonist, acetylcholine chloride, was prepared to obtain a dose response curve. After incubation, the samples were harvested into filter plates (GF/C) and washed with ice cold washing buffer (20 mM Hepes pH 7.4) using the 96-well harvester. […]

T1 sequence (Q92847 whole entry C146S/C304S, the tested form may be a part): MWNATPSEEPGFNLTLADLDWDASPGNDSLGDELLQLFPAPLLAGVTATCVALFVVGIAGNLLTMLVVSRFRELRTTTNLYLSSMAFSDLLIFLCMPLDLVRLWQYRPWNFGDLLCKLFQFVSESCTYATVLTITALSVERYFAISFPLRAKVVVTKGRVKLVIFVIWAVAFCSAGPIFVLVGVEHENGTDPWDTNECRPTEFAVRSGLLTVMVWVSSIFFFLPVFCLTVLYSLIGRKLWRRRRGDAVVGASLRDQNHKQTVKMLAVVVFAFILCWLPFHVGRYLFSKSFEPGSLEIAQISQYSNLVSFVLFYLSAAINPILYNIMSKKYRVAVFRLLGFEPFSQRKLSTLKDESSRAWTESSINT

Molecule	conformational change in the receptor [1]	Shift [2]	maximum emission wavelength of bimane [1] [nm]	increase of agonist affinity / stabilization of the receptor [2]
Ac-KKKFNDCKDIILQMNLREYNLV-OH [SBL-GQ-08]	not able to induce a conformational change	2		
CC[C@H](C)[C@H](NC(=O)[C@@H]1CCCCn2cc(nn2)C[C@H](NC(=O)[C@H](CC(N)=O)NC(=O)[C@H](Cc2ccccc2)NC(=O)[C@H](CCCCN)NC(=O)[C@H](CCCCN)NC(=O)[C@H](CCCCN)NC(C)=O)C(=O)N[C@@H](CS)C(=O)N[C@@H](CCCCN)C(=O)N[C@@H](CC(=O)O)C(=O)N1)C(=O)N[C@@H](CC(C)C)C(=O)N[C@@H](CCC(N)=O)C(=O)N[C@@H](CCSC)C(=O)N[C@@H](CC(N)=O)C(=O)N[C@@H](CC(C)C)C(=O)N[C@@H](CCCNC(=N)N)C(=O)N[C@@H](CCC(=O)O)C(=O)N[C@@H](Cc1ccc(O)cc1)C(=O)N[C@@H](CC(N)=O)C(=O)N[C@@H](CC1CCCCC1)C(=O)N[C@H](C(=O)O)C(C)C [SBL-GQ-12] (Ac-KKKFN[Pra]CKD[Lys(N3)]ILQMNLREYN[Cha]V-OH; triazole 6-10)		34	~478	more significant and promising stabilization of the receptor
CC[C@H](C)[C@H](NC(=O)[C@@H]1CCCCn2cc(nn2)C[C@H](NC(=O)[C@H](C)NC(=O)[C@H](Cc2ccccc2)NC(=O)[C@H](CCCCN)NC(=O)[C@H](CCCCN)NC(=O)[C@H](CCCCN)NC(C)=O)C(=O)N[C@@H](C(C)C)C(=O)N[C@@H](CCCCN)C(=O)N[C@@H](CC(=O)O)C(=O)N1)C(=O)N[C@@H](CC(C)C)C(=O)N[C@@H](CCC(N)=O)C(=O)N[C@@H](CC(C)C)C(=O)N[C@@H](CC(N)=O)C(=O)N[C@@H](CC(C)C)C(=O)N[C@@H](CCCCN)C(=O)N[C@@H](CCC(=O)O)C(=O)N[C@@H](Cc1ccc(O)cc1)C(=O)N[C@@H](CC(N)=O)C(=O)N[C@@H](CC1CCCCC1)C(=O)N[C@H](C(=O)O)C(C)C [SBL-GQ-06] (Ac-KKKFA[Pra]VKD[Lys(N3)]ILQLNLKEYN[Cha]V-OH; triazole 6-10)		8	~478	slight increase in agonist affinity
CC[C@H](C)[C@H](NC(=O)[C@@H]1CCCCn2cc(nn2)C[C@H](NC(=O)[C@H](CC(N)=O)NC(=O)[C@H](Cc2ccccc2)NC(=O)[C@H](CCCCN)NC(=O)[C@H](CCCCN)NC(=O)[C@H](CCCCN)NC(C)=O)C(=O)N[C@@H](CS)C(=O)N[C@@H](CCCCN)C(=O)N[C@@H](CC(=O)O)C(=O)N1)C(=O)N[C@@H](CC(C)C)C(=O)N[C@@H](CCC(N)=O)C(=O)N[C@@H](CCSC)C(=O)N[C@@H](CC(N)=O)C(=O)N[C@@H](CC(C)C)C(=O)N[C@@H](CCCNC(=N)N)C(=O)N[C@@H](CCC(=O)O)C(=O)N[C@@H](Cc1ccc(O)cc1)C(=O)N[C@@H](CC(N)=O)C(=O)N[C@@H](CC(C)C)C(=O)N[C@H](C(=O)O)C(C)C [SBL-GQ-11] (Ac-KKKFN[Pra]CKD[Lys(N3)]ILQMNLREYNLV-OH; triazole 6-10)		7	~478	slight increase in agonist affinity
Ac-KKKFAAVKDTILQLNLKEYNLV-OH [SBL-GQ-02]	not able to induce a conformational change	2		
CC[C@H](C)[C@H](NC(=O)[C@H](CC(=O)O)NC(=O)[C@H](CCCCN)NC(=O)[C@H](CS)NC(=O)[C@H](CC(=O)O)NC(=O)[C@H](CC(N)=O)NC(=O)[C@H](Cc1ccccc1)NC(=O)[C@H](CCCCN)NC(=O)[C@H](CCCCN)NC(=O)[C@H](CCCCN)NC(C)=O)C(=O)N[C@H](C(=O)N[C@@H](CC(C)C)C(=O)N[C@@H](CCC(N)=O)C(=O)N[C@@H](CCSC)C(=O)N[C@@H](CC(N)=O)C(=O)N[C@@H](CC(C)C)C(=O)N[C@@H](CCCNC(=N)N)C(=O)N[C@@H](CCC(=O)O)C(=O)N[C@@H](Cc1ccc(O)cc1)C(=O)N[C@@H](CC(N)=O)C(=O)N[C@@H](CC1CCCCC1)C(=O)N[C@H](C(=O)O)C(C)C)[C@@H](C)CC [SBL-GQ-10] (Ac-KKKFNDCKDIILQMNLREYN[Cha]V-OH)	not able to induce a conformational change	2		
